From patent US20240091210A1, “USE OF 5-[[4-[2-[5-ACETYLPYRIDIN-2-YL]ETHOXY]BENZYL]-1,3-THIAZOLIDINE-2,4-DIONE AND ITS SALTS” (Minoryx Therapeutics S.L., priority 2018, published 2024)
Read-outs that look alike come from different tables or passages of the source.

Assays:
MDA MB231 KO cells = assay: Seahorse oxygen consumption rate (OCR), MDA MB231 KO cells (MPC2 deleted); format: cell-based; settings: MPC activity genetically deleted
Description: (§1) To determine whether MIN-102 has any effect on pyruvate-mediated mitochondrial respiration, the extracellular flux analyzer Seahorse was used as described in Compan et al.. Seahorse experiments were performed in the following cell lines: HeLa (Cervix cancer cells), A549 (lung cancer cells), wild type MDA MB 231, and MDA MB 231 in which MPC2 has been deleted, leading to inactivation of the MPC (MDA MB231 KO). MDA MB231 cells are epithelial breast cancer cells. Cells were incubated with increasing concentrations of the compounds for one hour at 37° C. before oxygen consumption rate (OCR) measurements. The Seahorse analyzer allowed to measure basal and maximal respiration measured upon depolarization with 1 μM CCCP. […] The KO cells have been deleted of the MPC2 gene and therefore they display no MPC activity. The top panel show a representative experiment of either wild type (WT) or KO cell lines. […] OCR values are expressed as ratios of OCR in the presence of different concentrations of the tested compound over the OCR in PBS alone.

[1] = Minimal effective exposure in mice (dose calculation); format: in vivo; settings: said to correspond to 50 mg/kg
Description: It can be assumed that dose-exposure is linear. The minimal effective exposure of 5-[[4-[2-[5-(1-hydroxyethyl)pyridin-2-yl]ethoxy]phenyl]methyl]-1,3-thiazolidine-2,4-dione hydrochloride is 130 μg·h/mL in mice which corresponds to administration of 50 mg/kg of 5-[[4-[2-[5-(1-hydroxyethyl)pyridin-2-yl]ethoxy]phenyl]methyl]-1,3-thiazolidine-2,4-dione hydrochloride to mice. It follows that the dose to achieve this exposure in mice is […].

adiponectin = assay: Plasma adiponectin levels in rats (ELISA), measure of PPAR gamma engagement; format: in vivo, Sprague Dawley rats; settings: 54 mg/Kg/day for 7 days, plasma 1 h after last dose, vs vehicle
Description: Evaluation of effect of MIN-102 on adiponectin was performed in Sprague Dawley wild type rats as a measure of PPAR gamma engagement. The rats were treated for 7 days with increasing doses of MIN-102 at 54 mg/Kg/day. Plasma were obtained at 1 h after the last MIN-102 administration. Adiponectin levels were measured by ELISA. Results were represented as mean+standard error of the mean of n=8. Data were analyzed by Kruskal-Wallis followed by the Dunn post-hoc test versus the vehicle group (**** p<0.0001).

[2] = Multiple ascending dose (MAD) study in human subjects; format: in vivo; settings: for Cmax: in vivo, steady state day 8, human, read-out: mean Cmax ss
[3] = tested on: wild type MDA MB231 cells; assay: Seahorse oxygen consumption rate (OCR), wild type MDA MB231 cells; format: cell-based
Description: as §1

[4] = tested on: MCD diet NASH mouse model; assay: Methionine Choline Deficient (MCD) diet NASH mouse model; format: in vivo, C57BL6/J male mice; settings: 62.5 mg/kg BID oral, 7 weeks
Description: The preventive effects of MIN-102 was evaluated in a 7-week Methionine Choline Deficient (MCD) diet NASH mouse model (Verdelho Machado et al.). After the acclimation period, C57BL6/J male mice (n=20) were weighed and randomized into 2 homogenous treatment groups based on body weight (n=10/group), put on a MCD diet, and treated BID orally with vehicle or MIN-102 for 7 weeks. MIN-102 was dosed 62.5 mg/kg BID orally by gavage. After the acclimation period, C57BL6/J male mice (n=20) were weighed and randomized into 2 homogenous treatment groups based on body weight (n=10/group), put on a MCD diet, and treated BID orally with a vehicle or MIN-102 (125 mg/Kg/day) for 7 weeks. Body weight was measured 3 times/week until the end of the experimental phase. At 7 weeks of diet/treatment, mice were weighed and treated at ˜08:00 am in the morning, then bled (maximal volume/EDTA) at ˜1:00 pm. Plasma was then immediately isolated and stored at −80° C. prior to assay plasma ALT and AST. The plasma volume left over was stored at −80° C. for eventual additional analysis. After blood collection, the mice were sacrificed by cervical dislocation under isoflurane anesthesia and exsanguinated with sterile saline. A NAFLD scoring system (NAS) adapted from Kleiner et al. (Hepatology. 41(6):1313-1321 (2005)) using the criteria described in the Table 1 below: Several other histopathological observations described in clinical human cases and originally reported in the NAS scoring system published by Kleiner et al. were not observed in this animal study, such as lipogranuloma, acidophil bodies, megamitochondria, and pigmented macrophages. Therefore, it was elected not to include them in the scoring system described above. An individual mouse NAS total score was calculated for each animal by summing up the score for (1) hepatocellular steatosis, (2) liver inflammation, (3) lobular fibrosis, and (4) hepatocyte ballooning. Histology analysis was performed (oil red O, H&E and Sirius Red staining) for NAFLD scoring system (NAS) for liver steatosis, inflammation, fibrosis and hepatocyte ballooning.

SMILES: CC(O)c1ccc(CCOc2ccc(CC3SC(=O)NC3=O)cc2)nc1.Cl (racemic) [MIN-102, 5-[[4-[2-[5-(1-hydroxyethyl)pyridin-2-yl]ethoxy]phenyl]methyl]-1,3-thiazolidine-2,4-dione hydrochloride]
- effect on oxygen consumption (MDA MB231 KO cells): does not inhibit oxygen consumption
- minimal effective exposure [1]: 130 µg·h/mL
- plasma adiponectin levels (adiponectin): significantly increased
- change in clearance with time ([2]; 135 mg and 270 mg, human): no change in clearance with time
- Cmax ([2]; 135 mg): 9490 ng/mL
- Cmax ([2]; 270 mg): 17200 ng/mL
- Cmin ss associated with the target AUCss ([2]; target AUCss 200 μg·h/mL, line of best fit of day 8 Cmin ss vs AUCss): 5716 ng/mL
- effect on oxygen consumption [3]: inhibits oxygen consumption in a MPC dependent manner
- hepatic cholesterol levels [4]: did not show a change
- liver inflammation [4]: total disappearance
- body weight loss ([4]; day 14 to day 50, vs vehicle): less severe decline in body weight loss
- oil red o staining % ([4]; vs vehicle, p<0.001): extremely low
- reduction in hepatic triglycerides levels ([4]; vs vehicle, p<0.001): 92%
- steatosis score ([4]; vs vehicle, p<0.001): blunted
- reduction of plasma ALT level ([4]; vs vehicle, p<0.01): 78%
- reduction of plasma AST level ([4]; vs vehicle, p<0.01): 55%
- mean NAS group score ([4]; vehicle 3.40±0.3, p<0.001): 0.44±01
